# In paper PMC6337588, “Multi-Target Cinnamic Acids for Oxidative Stress and Inflammation: Design, Synthesis, Biological Evaluation and Modeling Studies” (Molecules, 2018):
# Test system: not listed separately
# Assay: Experimental lipophilicity as RM values by reversed phase TLC (RPTLC)
# Format: physicochemical
# Details: methanol/water 77/23 with 0.1% acetic acid, 24 °C, average of at least 5 measurements
# Source text: Lipophilicity is a physicochemical property correlated with the biological activity. Lipophilicity influences ligand-target binding interactions, solubility, absorption, distribution, bioavailability, metabolism and elimination (ADME) and toxicological outcomes. The lipophilicity of the novel cinnamic acids was experimentally measured as RM values using a reverse phase thin layer chromatography (RPTLC) method. This is acknowledged as a reliable, fast and convenient approach for expressing lipophilicity (Table 1). RM relates to the thermodynamic Rf value in a logarithmic form. Bate-Smith and Westall firstly determined lipophilicity as RM values in 1950 [31]. The Br-substituted derivatives 1i–7i are more lipophilic than the OH-substituted ones 1ii–7ii which can be easily explained by their structural characteristics.
# Reversed phase TLC (RPTLC) was performed on silica gel plates impregnated with 55% (v/v) liquid paraffin in light petroleum ether. The mobile phase was a methanol/water mixture (77/23, v/v) containing 0.1% of acetic acid. The plates were developed in closed chromatography tanks saturated with the mobile phase at 24 °C. Spots were detected under UV light. RM values were determined from the corresponding Rf values (from five individual measurements) using the equation RM = log[(1/Rf) − 1] [17, 18, 28].
row,RM (±SD),Compound
1,0.683 (0.015),"CC(=Cc1ccccc1)C=C(C(=O)O)c1ccc(Br)cc1 [Compound 5i, 2-(4-Bromophenyl)-4-methyl-5-phenylpenta-2,4-dienoic acid]"
2,0.622 (0.025),"CC(C)(C)c1cc(C=C(C(=O)O)c2ccc(O)cc2)c(O)c(C(C)(C)C)c1 [Compound 6ii, 3-(3,5-di-tert-Butyl-2-hydroxyphenyl)-2-(4-hydroxyphenyl)acrylic acid]"

# Molecular target: T1, soybean lipoxygenase (Glycine max, UniProt P08170)
# T1 construct: purchased Sigma Chemical, Co. (St. Louis)
# T1 sequence (P08170 1-839): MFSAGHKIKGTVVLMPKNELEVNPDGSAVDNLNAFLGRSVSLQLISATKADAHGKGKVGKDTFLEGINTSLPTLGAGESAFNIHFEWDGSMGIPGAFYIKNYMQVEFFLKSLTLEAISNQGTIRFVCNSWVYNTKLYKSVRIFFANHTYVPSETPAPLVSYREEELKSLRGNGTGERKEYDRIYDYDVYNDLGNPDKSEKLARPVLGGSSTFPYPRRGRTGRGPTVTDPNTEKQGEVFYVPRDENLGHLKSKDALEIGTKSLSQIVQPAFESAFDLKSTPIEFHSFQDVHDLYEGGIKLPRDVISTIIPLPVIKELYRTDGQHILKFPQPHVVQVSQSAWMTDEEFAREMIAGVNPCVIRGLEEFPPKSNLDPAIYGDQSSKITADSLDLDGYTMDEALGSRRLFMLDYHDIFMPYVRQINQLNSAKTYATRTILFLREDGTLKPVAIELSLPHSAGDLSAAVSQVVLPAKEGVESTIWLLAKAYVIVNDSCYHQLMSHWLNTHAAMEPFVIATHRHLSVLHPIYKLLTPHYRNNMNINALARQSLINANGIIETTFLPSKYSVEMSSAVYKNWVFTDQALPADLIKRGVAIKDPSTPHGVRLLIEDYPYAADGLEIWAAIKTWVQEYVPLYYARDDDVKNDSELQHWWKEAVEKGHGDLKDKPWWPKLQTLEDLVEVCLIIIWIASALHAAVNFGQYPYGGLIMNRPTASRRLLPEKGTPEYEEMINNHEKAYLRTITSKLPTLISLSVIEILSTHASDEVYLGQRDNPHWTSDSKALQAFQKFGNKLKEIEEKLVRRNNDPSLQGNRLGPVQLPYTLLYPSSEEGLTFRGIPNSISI
# Assay: Soybean lipoxygenase inhibition in vitro
# Format: biochemical
# Details: sodium linoleate 0.1 mM, 234 nm, read-out: LOX IC50
# Experimental: Many research groups have used readily obtainable soybean lipoxygenase, which is a homologue of mammalian lipoxygenase and well studied. Due to its availability and its well-characterised crystal structure, soybean LOX was selected to be used in this study.
# In vitro study was evaluated as reported previously by our group. The tested compounds were incubated at room temperature with sodium linoleate (0.1 mM) and 0.2 mL of enzyme solution (1/9 × 104 w/v in saline). The method was based to the conversion of sodium linoleate to 13-hydroperoxylinoleic acid at 234 nm. […] In order to determine the IC50 values different concentrations were used.
row,IC50,Compound
1,77.5 µM,"CC(=Cc1ccccc1)C=C(C(=O)O)c1ccc(Br)cc1 [Compound 5i, 2-(4-Bromophenyl)-4-methyl-5-phenylpenta-2,4-dienoic acid]"
2,74 µM,"CC(C)(C)c1cc(C=C(C(=O)O)c2ccc(O)cc2)c(O)c(C(C)(C)C)c1 [Compound 6ii, 3-(3,5-di-tert-Butyl-2-hydroxyphenyl)-2-(4-hydroxyphenyl)acrylic acid]"

# Test system: not listed separately
# Assay: Reducing activity of the stable radical DPPH
# Format: biochemical
# Details: 50 µM, 20 min
# Experimental: The substituted acids were monitored for the antioxidant activity by the use of the stable 2,2-diphenyl-1-picrylhydrazyl radical (DPPH) at concentration 50 µM and 100 µM after 20 and 60 min (Table 1). In this assay the DPPH radical is reduced by single electron transfer from the antioxidant. Strong antioxidants are the phenoxide anions from phenolic compounds like catechol and derivatives, such as nordihydroguaretic acid (NDGA), the reference compound. The compounds presented medium reducing abilities from 29–61%, due to steric reasons; small differences were found among the compounds with time and concentration. 4-Br-substituted-3 phenyl acetic acid derivatives (Series I) are equipotent to 4-OH-substituted-3 phenyl acetic acid derivatives (Series II). No differences were observed between 4i and 5i and 4ii and 5ii.
# To a solution of DPPH in absolute ethanol an equal volume of the compounds dissolved in DMSO was added. The final concentrations of the measured solutions of the novel acids were 50 and 100 µM starting from a stock solution (10 mM) in DMSO. The absorbance was recorded at 517 nm, after 20 and 60 min at room temperature (Table 1).
row,Compound,RA% 50 µM 20 min
1,"CC(Cc1ccc(O)c(O)c1)C(C)Cc1ccc(O)c(O)c1 (stereo not shown) [NDGA, nordihydroguaretic acid, reference compound]",81%
2,"CC(=Cc1ccccc1)C=C(C(=O)O)c1ccc(Br)cc1 [Compound 5i, 2-(4-Bromophenyl)-4-methyl-5-phenylpenta-2,4-dienoic acid]",33%
3,"CC(C)(C)c1cc(C=C(C(=O)O)c2ccc(O)cc2)c(O)c(C(C)(C)C)c1 [Compound 6ii, 3-(3,5-di-tert-Butyl-2-hydroxyphenyl)-2-(4-hydroxyphenyl)acrylic acid]",43%

# Same assay, conditions: 50 µM, 60 min
row,Compound,RA% 50 µM 60 min
1,"CC(Cc1ccc(O)c(O)c1)C(C)Cc1ccc(O)c(O)c1 (stereo not shown) [NDGA, nordihydroguaretic acid, reference compound]",83%
2,"CC(=Cc1ccccc1)C=C(C(=O)O)c1ccc(Br)cc1 [Compound 5i, 2-(4-Bromophenyl)-4-methyl-5-phenylpenta-2,4-dienoic acid]",33%
3,"CC(C)(C)c1cc(C=C(C(=O)O)c2ccc(O)cc2)c(O)c(C(C)(C)C)c1 [Compound 6ii, 3-(3,5-di-tert-Butyl-2-hydroxyphenyl)-2-(4-hydroxyphenyl)acrylic acid]",36%

# Same assay, conditions: 100 µM, 20 min
row,Compound,RA% 100 µM 20 min
1,"CC(Cc1ccc(O)c(O)c1)C(C)Cc1ccc(O)c(O)c1 (stereo not shown) [NDGA, nordihydroguaretic acid, reference compound]",87%
2,"CC(=Cc1ccccc1)C=C(C(=O)O)c1ccc(Br)cc1 [Compound 5i, 2-(4-Bromophenyl)-4-methyl-5-phenylpenta-2,4-dienoic acid]",36%
3,"CC(C)(C)c1cc(C=C(C(=O)O)c2ccc(O)cc2)c(O)c(C(C)(C)C)c1 [Compound 6ii, 3-(3,5-di-tert-Butyl-2-hydroxyphenyl)-2-(4-hydroxyphenyl)acrylic acid]",31%

# Same assay, conditions: 100 µM, 60 min
row,Compound,RA% 100 µM 60 min
1,"CC(Cc1ccc(O)c(O)c1)C(C)Cc1ccc(O)c(O)c1 (stereo not shown) [NDGA, nordihydroguaretic acid, reference compound]",93%
2,"CC(=Cc1ccccc1)C=C(C(=O)O)c1ccc(Br)cc1 [Compound 5i, 2-(4-Bromophenyl)-4-methyl-5-phenylpenta-2,4-dienoic acid]",38%
3,"CC(C)(C)c1cc(C=C(C(=O)O)c2ccc(O)cc2)c(O)c(C(C)(C)C)c1 [Compound 6ii, 3-(3,5-di-tert-Butyl-2-hydroxyphenyl)-2-(4-hydroxyphenyl)acrylic acid]",36%

# Test system: not listed separately
# Assay: Competition with DMSO for hydroxyl radicals (Fe3+/ascorbic acid system)
# Format: biochemical
# Details: hydroxyl radical scavenging
# Experimental: Competition of the novel substituted acids with DMSO for hydroxyl radicals was measured. Hydroxyl radicals were generated using the Fe^3+/ascorbic acid system and expressed as a percentage inhibition of formaldehyde production in the presence of each compound at 100 μM (Table 2). All the synthesized derivatives strongly scavenge hydroxyl radicals at 100 μM in comparison to the reference compound Trolox.
# The hydroxyl radicals generated by the Fe^3+/ascorbic acid system, were detected by the determination of formaldehyde produced from the oxidation of DMSO (Table 2). Trolox was used as reference compound [17, 18, 28].
row,Compound,HO•% 100 µM
1,"CC(=Cc1ccccc1)C=C(C(=O)O)c1ccc(Br)cc1 [Compound 5i, 2-(4-Bromophenyl)-4-methyl-5-phenylpenta-2,4-dienoic acid]",82%
2,"Cc1c(C)c2c(c(C)c1O)CCC(C)(C(=O)O)O2 (stereo not shown) [Trolox, reference compound]",73%
3,"CC(C)(C)c1cc(C=C(C(=O)O)c2ccc(O)cc2)c(O)c(C(C)(C)C)c1 [Compound 6ii, 3-(3,5-di-tert-Butyl-2-hydroxyphenyl)-2-(4-hydroxyphenyl)acrylic acid]",100%

# Test system: not listed separately
# Assay: Non enzymatic assay of superoxide radical scavenging activity (PMS/NADH/NBT)
# Format: biochemical
# Details: not given
# Experimental: Superoxide radical is a main cause of oxidative stress, expressing its biological toxicity by the inactivation of iron-sulfur cluster containing enzymes. The superoxide anion radical (O2^−^•) is less toxic than the hydroxyl radical, but still being one of the most known toxic reactive oxygen species (ROS). In this assay the superoxide anion radicals were generated by a non-enzymatically assay and the compounds are tested at 100 μM final concentration (Table 2). Caffeic acid (CA) has been used as a reference compound. Compound 4ii presented the highest activity, followed by compound 3ii. We succeeded to derive a quantitative-structure activity relationship model for this activity in which the topological polar surface (TPAS) of the compounds seem to govern the superoxide anion scavenging activity:% Superoxide Anion Scavenging Activity (100 µM) = 0.019 (±0.007) TPSA + 0.813 (±0.358) n = 6, r = 0.962, r^2 = 0.926, q^2 = 0.694, s = 0.122, Q = 7.885, F1,6 = 3.701, α = 0.1 clog P vs. TPSA 0.
# The superoxide radicals are generated by mixing N-methylphenazonium methyl sulfate (PMS), NADH and air–oxygen and determined by the nitroblue tetrazolium method and measured at 560 nm (Table 2). Caffeic acid was used as reference compound [17, 18, 28].
row,Compound,O2−•% 100 µM
1,"O=C(O)/C=C/c1ccc(O)c(O)c1 [CA, Caffeic acid, reference compound]",23%

# Test system: not listed separately
# Assay: ABTS+• decolorization assay
# Format: biochemical
# Details: 1 min, 734 nm
# Experimental: No role for lipophilicity was found. Oxidation of ABTS with potassium persulfate generates directly the ABTS radical cation (ABTS^+•) with no involvement of an intermediary radical, which is then reduced upon adding electron-donating antioxidants.
# In order to produce the ABTS radical cation (ABTS^+•), ABTS stock solution in water (7 mM) was mixed with potassium persulfate (2.45 mM) and left in the dark at room temperature for 12–16 h before use. Our published experimental technique was used (Table 2). The results are recorded after 1 min of the mixing solutions at 734 nm. The results were compared to the appropriate standard inhibitor Trolox.
row,Compound,ABTS+•% 100 µM
1,"CC(=Cc1ccccc1)C=C(C(=O)O)c1ccc(Br)cc1 [Compound 5i, 2-(4-Bromophenyl)-4-methyl-5-phenylpenta-2,4-dienoic acid]",30%
2,"Cc1c(C)c2c(c(C)c1O)CCC(C)(C(=O)O)O2 (stereo not shown) [Trolox, reference compound]",88%
3,"CC(C)(C)c1cc(C=C(C(=O)O)c2ccc(O)cc2)c(O)c(C(C)(C)C)c1 [Compound 6ii, 3-(3,5-di-tert-Butyl-2-hydroxyphenyl)-2-(4-hydroxyphenyl)acrylic acid]",38%

# Test system: not listed separately
# Assay: Inhibition of linoleic acid peroxidation (AAPH)
# Format: biochemical
# Details: anti-lipid peroxidation, 50 µM
# Source text: We also used water-soluble 2,2′-[…](2-amidinopropane) hydrochloride (AAPH) for the generation of free radicals. AAPH has been extensively used as a clean and controllable source of thermally produced alkylperoxyl free radicals. The peroxyl radicals produced by the action of AAPH show total similarity to cellular activities such as lipid peroxidation. […] It seems that the presence of 3,5-di-tert-butyl-group greatly enhances protection against lipid peroxidation (6i/ii and 7i/ii followed by 3ii and 5ii). The lipid peroxidation inhibitory activity seems to be concentration dependent.
# 2,2’-Azobis(2-amidinopropane) dihydrochloride (AAPH) was used as a free radical initiator to start the oxidation reaction. The method was based on the production of conjugated diene hydroperoxide by oxidation of linoleic acid at 234 nm expressed as an increased absorption. Trolox was used as reference compound (93%) (Table 2).
row,Compound,AAPH% 50 µM
1,"CC(=Cc1ccccc1)C=C(C(=O)O)c1ccc(Br)cc1 [Compound 5i, 2-(4-Bromophenyl)-4-methyl-5-phenylpenta-2,4-dienoic acid]",10%
2,"CC(C)(C)c1cc(C=C(C(=O)O)c2ccc(O)cc2)c(O)c(C(C)(C)C)c1 [Compound 6ii, 3-(3,5-di-tert-Butyl-2-hydroxyphenyl)-2-(4-hydroxyphenyl)acrylic acid]",64%

# Same assay, conditions: anti-lipid peroxidation, 100 µM
row,Compound,AAPH% 100 µM
1,"CC(=Cc1ccccc1)C=C(C(=O)O)c1ccc(Br)cc1 [Compound 5i, 2-(4-Bromophenyl)-4-methyl-5-phenylpenta-2,4-dienoic acid]",98%
2,"Cc1c(C)c2c(c(C)c1O)CCC(C)(C(=O)O)O2 (stereo not shown) [Trolox, reference compound]",93%
3,"CC(C)(C)c1cc(C=C(C(=O)O)c2ccc(O)cc2)c(O)c(C(C)(C)C)c1 [Compound 6ii, 3-(3,5-di-tert-Butyl-2-hydroxyphenyl)-2-(4-hydroxyphenyl)acrylic acid]",96%

# Same assay, conditions: anti-lipid peroxidation, 10 μΜ
row,Compound,AAPH lipid peroxidation inhibition at 10 μΜ
1,"CC(=Cc1ccccc1)C=C(C(=O)O)c1ccc(Br)cc1 [Compound 5i, 2-(4-Bromophenyl)-4-methyl-5-phenylpenta-2,4-dienoic acid]",9.6%

# Test system: not given
# Assay: not given
# Details: not given
row,melting point,Compound
1,128 to 129 °C,"CC(=Cc1ccccc1)C=C(C(=O)O)c1ccc(Br)cc1 [Compound 5i, 2-(4-Bromophenyl)-4-methyl-5-phenylpenta-2,4-dienoic acid]"
2,134 to 136 °C,"CC(C)(C)c1cc(C=C(C(=O)O)c2ccc(O)cc2)c(O)c(C(C)(C)C)c1 [Compound 6ii, 3-(3,5-di-tert-Butyl-2-hydroxyphenyl)-2-(4-hydroxyphenyl)acrylic acid]"
